From publication PMC9225722, “Synthesis and biological evaluation of thieno[3,2-c]pyrazol-3-amine derivatives as potent glycogen synthase kinase 3β inhibitors for Alzheimer’s disease” (Journal of Enzyme Inhibition and Medicinal Chemistry, 2022)

Tests used:
GSK-3β = GSK-3β (Homo sapiens, UniProt P49841); experiment: GSK-3β kinase assay (calliper mobility shift assay); format: biochemical; conditions: for IC50: mean ± SD from two separate experiments, calliper mobility shift assay; for fold less active than 16b (GSK-3β inhibition): compared with 16b
Chain of GSK-3β (P49841 whole entry): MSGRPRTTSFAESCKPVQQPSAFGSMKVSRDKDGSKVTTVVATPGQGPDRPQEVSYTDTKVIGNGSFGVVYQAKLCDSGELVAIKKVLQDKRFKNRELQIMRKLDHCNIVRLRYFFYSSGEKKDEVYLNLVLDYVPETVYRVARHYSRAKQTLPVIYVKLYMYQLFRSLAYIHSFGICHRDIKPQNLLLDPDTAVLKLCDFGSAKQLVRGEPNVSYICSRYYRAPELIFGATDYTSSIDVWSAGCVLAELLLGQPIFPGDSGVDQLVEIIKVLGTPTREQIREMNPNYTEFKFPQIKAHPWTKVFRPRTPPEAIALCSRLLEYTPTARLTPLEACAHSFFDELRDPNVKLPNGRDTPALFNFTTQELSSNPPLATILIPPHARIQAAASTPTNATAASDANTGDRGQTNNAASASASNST

[1] = test system: phosphorylation of GSK-3β at Ser9; experiment: Western blot of p-GSK-3β (Ser9) in SH-SY5Y cells; format: cell-based, human; conditions: LiCl positive control, concentration not given; 2.5 h; control 0.33
Description: GSK-3β is activated by phosphorylation at Tyr216 and is inhibited by phosphorylation at Ser9 [48]. As one of the substrates of Akt (protein kinase B), GSK-3 can inhibit Akt[49]. The inhibition of GSK-3β increases the p-Akt expression and activates the PI3K/Akt pathway, and that, in turn, phosphorylates the GSK-3β at the Ser9 site[50]^,[51]. […] As shown in Figure 6(A), LiCl greatly promoted GSK-3β phosphorylation at Ser9 (p-GSK-3β/GAPDH: 0.60 vs 0.33). […] Therefore, in cellular level, compound 16b was confirmed to have a direct effect on GSK-3β.
Figure 6. (A) The effect of 16b on phosphorylation of GSK-3β at Ser9; (B) the effect of 16b on β-catenin abundance. Protein expressions were detected by immunoblot analysis with a specific antibody. Values are reported as the mean ± SD of three independent experiments. *p < 0.05, **p < 0.01, ***p < 0.001 vs control.
SH-SY5Y cells (1 × 10^6) were seeded in 12-well plates (Corning, Los Altos, MA, USA) and incubated with compound 16b or LiCl at the indicated concentrations for 2.5 h at 37 °C in 5% CO2. At the end of incubation, cells were lysed by addition of ice-cold RIPA buffer containing a protease inhibitor cocktail. The protein quantification was determined using a BCA protein assay kit (Jiangsu KeyGEN BioTECH Co., Ltd., Nanjing, China). Cellular lysates were mixed with an equal volume of SDS (sodium dodecyl sulfate) loading buffer (Jiangsu KeyGEN BioTECH Co., Ltd., Nanjing, China) and separated by electrophoresis (Bio-rad Power Supplies Basic, Shanghai, China) in polyacrylamide gel. Proteins were transferred from acrylamide gels to nitrocellulose membranes and blocked in a blocking buffer (PBS, 5% non-fat milk) for 1.5 to 2 h at 20 °C. […] The blots were washed by TBST for 20 min and detected with ECL chemiluminescent reagent (Jiangsu KeyGEN BioTECH Co., Ltd., Nanjing, China) for 3 min. Pixel intensity was quantitated using gel imaging system (SYNGENE G:BOX/iChemi XR5, ISS, San Diego, CA, US) and Gel-Pro32 software (Media Cybernetics, Bethesda, MD, USA). […]

Row | melting point [°C] | IC50 (GSK-3β) [nM] | SMILES | other results
1 | 224 to 226 | 4.4 ± 0.2 | O=C(Nc1n[nH]c2cc(-c3cccnc3)sc12)C1CC1 [Compound 16a, N-(5-(pyridin-3-yl)-1H-thieno[3,2-c]pyrazol-3-yl)cyclopropanecarboxamide] | –
2 | 238 to 240 | 36 ± 1.7 | CCCC(=O)Nc1n[nH]c2cc(-c3cccnc3)sc12 [Compound 16c, N-(5-(pyridin-3-yl)-1H-thieno[3,2-c]pyrazol-3-yl)butyramide] | fold less active than 16b (GSK-3β inhibition) (GSK-3β): about 10 fold
3 | 208 to 210 | 1390 ± 55.2 | CCCS(=O)(=O)Nc1n[nH]c2cc(-c3cccnc3)sc12 [Compound 16d, N-(5-(pyridin-3-yl)-1H-thieno[3,2-c]pyrazol-3-yl)propane-1-sulphonamide] | GSK-3β inhibitory activity (in words) (GSK-3β): very weak
4 | > 240 | 33 ± 1.6 | O=C(Nc1n[nH]c2cc(-c3cccnc3)sc12)c1ccccc1 [Compound 16e, N-(5-(pyridin-3-yl)-1H-thieno[3,2-c]pyrazol-3-yl)benzamide] | fold less active than 16b (GSK-3β inhibition) (GSK-3β): about 10 fold
5 | > 240 | 20 ± 1.1 | O=C(Nc1n[nH]c2cc(-c3cncc(-c4ccccc4)c3)sc12)C1CC1 [Compound 17a, N-(5-(5-Phenylpyridin-3-yl)-1H-thieno[3,2-c]pyrazol-3-yl)cyclopropanecarboxamide] | fold less active than 16a (GSK-3β inhibition) (GSK-3β; compared with 16a): about 4 fold
6 | > 240 | 14 ± 0.6 | CC(C)C(=O)Nc1n[nH]c2cc(-c3cncc(-c4ccccc4)c3)sc12 [Compound 17b, N-(5-(5-Phenylpyridin-3-yl)-1H-thieno[3,2-c]pyrazol-3-yl)isobutyramide] | fold less active than 16b (GSK-3β inhibition) (GSK-3β): about 4 fold
7 | > 240 | 37 ± 1.3 | CCCC(=O)Nc1n[nH]c2cc(-c3cncc(-c4ccccc4)c3)sc12 [Compound 17c, N-(5-(5-Phenylpyridin-3-yl)-1H-thieno[3,2-c]pyrazol-3-yl)butyramide] | –
8 | 112 to 114 | > 5000 | CCCS(=O)(=O)Nc1n[nH]c2cc(-c3cncc(-c4ccccc4)c3)sc12 [Compound 17d, N-(5-(5-Phenylpyridin-3-yl)-1H-thieno[3,2-c]pyrazol-3-yl)propane-1-sulphonamide] | GSK-3β inhibitory activity (in words) (GSK-3β): not active
9 | > 240 | 84 ± 3.2 | CC(C)C(=O)Nc1n[nH]c2cc(-c3cnccc3-c3ccccc3)sc12 [Compound 18a, N-(5-(4-Phenylpyridin-3-yl)-1H-thieno[3,2-c]pyrazol-3-yl)isobutyramide] | –
10 | > 240 | 64 ± 2.3 | Cc1ccccc1-c1ccncc1-c1cc2[nH]nc(NC(=O)C(C)C)c2s1 [Compound 18b, N-(5-(4-(2-Methylphenyl)pyridin-3-yl)-1H-thieno[3,2-c]pyrazol-3-yl)isobutyramide] | –
11 | 236 to 238 | 153 ± 6.6 | Cc1cccc(-c2ccncc2-c2cc3[nH]nc(NC(=O)C(C)C)c3s2)c1 [Compound 18c, N-(5-(4-(3-Methylphenyl)pyridin-3-yl)-1H-thieno[3,2-c]pyrazol-3-yl)isobutyramide] | –
12 | 239 to 240 | 99 ± 4.8 | Cc1ccc(-c2ccncc2-c2cc3[nH]nc(NC(=O)C(C)C)c3s2)cc1 [Compound 18d, N-(5-(4-(4-Methylphenyl)pyridin-3-yl)-1H-thieno[3,2-c]pyrazol-3-yl)isobutyramide] | –
13 | 213 to 215 | 64 ± 2.7 | COc1ccccc1-c1ccncc1-c1cc2[nH]nc(NC(=O)C(C)C)c2s1 [Compound 18e, N-(5-(4-(2-Methoxyphenyl)pyridin-3-yl)-1H-thieno[3,2-c]pyrazol-3-yl)isobutyramide] | –
14 | 212 to 214 | 113 ± 8.6 | COc1cccc(-c2ccncc2-c2cc3[nH]nc(NC(=O)C(C)C)c3s2)c1 [Compound 18f, N-(5-(4-(3-Methoxyphenyl)pyridin-3-yl)-1H-thieno[3,2-c]pyrazol-3-yl)isobutyramide] | –
15 | > 240 | 105 ± 5.2 | COc1ccc(-c2ccncc2-c2cc3[nH]nc(NC(=O)C(C)C)c3s2)cc1 [Compound 18g, N-(5-(4-(4-Methoxyphenyl)pyridin-3-yl)-1H-thieno[3,2-c]pyrazol-3-yl)isobutyramide] | –
16 | > 240 | 94 ± 3.5 | CC(C)C(=O)Nc1n[nH]c2cc(-c3cnccc3-c3ccccc3F)sc12 [Compound 18h, N-(5-(4-(2-Fluorophenyl)pyridin-3-yl)-1H-thieno[3,2-c]pyrazol-3-yl)isobutyramide] | –
17 | > 240 | 173 ± 6.8 | CC(C)C(=O)Nc1n[nH]c2cc(-c3cnccc3-c3cccc(F)c3)sc12 [Compound 18i, N-(5-(4-(3-Fluorophenyl)pyridin-3-yl)-1H-thieno[3,2-c]pyrazol-3-yl)isobutyramide] | –
18 | > 240 | 15 ± 0.3 | CC(C)C(=O)Nc1n[nH]c2cc(-c3cnccc3-c3ccc(F)cc3)sc12 [Compound 18j, N-(5-(4-(4-Fluorophenyl)pyridin-3-yl)-1H-thieno[3,2-c]pyrazol-3-yl)isobutyramide] | –
19 | 202 to 204 | 107 ± 6.1 | CC(C)C(=O)Nc1n[nH]c2cc(-c3cnccc3-c3cccc(C(F)(F)F)c3)sc12 [Compound 18k, N-(5-(4-(3-(trifluoromethyl)phenyl)pyridin-3-yl)-1H-thieno[3,2-c]pyrazol-3-yl)isobutyramide] | –
20 | > 240 | 158 ± 8.9 | CC(C)C(=O)Nc1n[nH]c2cc(-c3cnccc3-c3ccc(C(F)(F)F)cc3)sc12 [Compound 18l, N-(5-(4-(4-(trifluoromethyl)phenyl)pyridin-3-yl)-1H-thieno[3,2-c]pyrazol-3-yl)isobutyramide] | –
21 | 159 to 161 | 387 ± 21.2 | CC(C)C(=O)Nc1n[nH]c2cc(-c3cnccc3-c3ccc(-c4ccccc4)cc3)sc12 [Compound 18m, N-(5-(4-([1,1'-Biphenyl]-4-yl)pyridin-3-yl)-1H-thieno[3,2-c]pyrazol-3-yl)isobutyramide] | –
22 | > 240 | 195 ± 10.4 | CC(C)C(=O)Nc1n[nH]c2cc(-c3cnccc3-c3ccc4ccccc4c3)sc12 [Compound 18n, N-(5-(4-(naphthalen-2-yl)pyridin-3-yl)-1H-thieno[3,2-c]pyrazol-3-yl)isobutyramide] | fold less active than 18a (GSK-3β inhibition) (GSK-3β; compared with 18a): about 2 fold
23 | – | – | [Cl-].[Li+] [LiCl, reference compound] | p-GSK-3β/GAPDH ratio (Ser9) [1]: 0.60
